Experimental data published in patent US20130345204A1, “SUBSTITUTED BICYCLIC CYCLOALKYL PYRAZOLE LACTAM ANALOGS AS ALLOSTERIC MODULATORS OF MGLUR5 RECEPTORS” (Vanderbilt University, priority 2012, published 2013).
Where two headings read alike, the source gives them in different places.

Key:
[1] = target: human mGluR5 (Homo sapiens, UniProt P41594); assay: Cell-based functional Ca2+ mobilization assay (FDSS), potentiation of glutamate EC20 response
Text: Human mGluR5a cDNA in pCMV6-XL6 mammalian expression plasmid was purchased from OriGene Technologies, Inc. (catalogue number SC326357) and subcloned into pcDNA3.1(-). Human embryonic kidney (HEK)293A cells were then transfected with human mGluR5a pcDNA3.1(-) using LipofectAmine-2000 (Invitrogen) and monoclones were selected and tested for functional response using a Ca^2+ mobilization assay. Monoclones were named for the species (“H” for human) plus the location on the plate (e.g. “10H”). […] Cell-lines used were either the H10H or […] cell-lines expressing the human mGluR5 receptor. The following day, the growth medium was removed and the cells were washed with assay buffer containing 1× Hank's balanced salt solution (Invitrogen, Carlsbad, Calif.), 20 mM HEPES, 2.5 mM probenecid, pH 7.4 and left with 20 μL of this reagent. Following this step, the cells were loaded with calcium indicator dye, fluo-4 AM, to a final concentration of 2 μM and incubated for 40-45 min at 37° C. The dye solution was removed and replaced with assay buffer. Cell plates were held for 10-15 min at room temperature and were then loaded into the Functional Drug Screening System 6000 (FDSS 6000, Hamamatsu, Japan). […] Calcium fluorescence measures were recorded as fold over basal fluorescence; raw data was then normalized to the maximal response to glutamate. […] The concentration-response curves of compounds of the present invention, obtained in the presence of EC20 of mGluR5 receptor agonist glutamate to determine positive allosteric modulation, were generated using Microsoft Excel with IDBS XLfit add-ins. The raw data file containing all time points was used as the data source in the analysis template. This was saved by the FDSS as a tab-delimited text file. Data were normalized using a static ratio function (F/F0) for each measurement of the total 350 values per well divided by each well's initial value. […] This is sufficient time to capture the peak amplitude of the cellular Calcium response. […] Each of the three values collected at each concentration of test compound were weighted evenly. Individual values falling outside the 95% prediction limits of the curve fit were automatically excluded from the fit. […] These two methods are in good agreement for curves with a clear plateau at the high concentration range. […] For consistency purposes across the range of potencies observed, all EMax values reported in this application are calculated using the maximum average response at a single concentration. The % EMax value for each compound reported in this application is defined as the maximum % effect obtained in a concentration-response curve of that compound expressed as a percent of the response of a maximally effect concentration of glutamate. […] Table IV below lists specific compounds as well as experimentally determined mGluR5 activity determined in a cell-based. The mGluR5 activity was determined using the metabotropic glutamate receptor activity assays in human embryonic kidney cells as described herein, wherein the human embryonic kidney cells were transfected with human mGluR5. The data in Table III were obtained using the H10H cell-line which expresses recombinant human mGluR5. The compound number corresponds to the compound numbers used in Table I.

[2] = test system: amphetamine-induced hyperlocomotion; assay: Reversal of amphetamine-induced hyperlocomotion in rat; format: in vivo; conditions: male Sprague-Dawley rats; compound p.o.; amphetamine 1 mg/kg s.c.
Protocol: The study was carried out using male Sprague-Dawley rats weighing 225 g-275 g, between 2-3 months old (Harlan, Inc., Indianapolis, Ind.). They were kept in the animal care facility certified by the American Association for the Accreditation of Laboratory Animal Care (AALAC) under a 12-hour light/dark cycle (lights on: 6 a.m.; lights off: 6 p.m.) and had free access to food and water. The experimental protocols performed during the light cycle were approved by the Institutional Animals Care and Use Committee of Vanderbilt University and conformed to the guidelines established by the National Research Council Guide for the Care and Use of Laboratory Animals.
Locomotor activity was assessed as mean distance traveled (cm) in Smart Open Field locomotor activity test chambers (Hamilton-Kinder, San Diego, Calif.) with 16×16 photobeams with chambers measuring 43.2 cm (Length)×43.2 cm (Width)×30.5 cm (Height) (Med Associates, St. Albans, Vt.). […] At 60 min, all rats were injected subcutaneously with 1 mg/kg amphetamine or vehicle and then monitored for an additional 60 min. Animals are monitored for a total of 120 minutes.
Data are expressed as the mean (±SEM) distance traveled recorded in 5 min intervals over the test period. The data was analyzed using repeated measures analysis of variance (ANOVA) followed by post-hoc testing using Dunnett's test, when appropriate. […]

[3] = H10H cell-line, maximum % effect as percent of response to maximally effective glutamate, glutamate EC20 present, read-out: Emax (%)
[4] = H10H cell-line, potentiation in presence of glutamate EC20

human mGluR5, sequence (P41594 21-1180 isoform P41594-2 limits assumed): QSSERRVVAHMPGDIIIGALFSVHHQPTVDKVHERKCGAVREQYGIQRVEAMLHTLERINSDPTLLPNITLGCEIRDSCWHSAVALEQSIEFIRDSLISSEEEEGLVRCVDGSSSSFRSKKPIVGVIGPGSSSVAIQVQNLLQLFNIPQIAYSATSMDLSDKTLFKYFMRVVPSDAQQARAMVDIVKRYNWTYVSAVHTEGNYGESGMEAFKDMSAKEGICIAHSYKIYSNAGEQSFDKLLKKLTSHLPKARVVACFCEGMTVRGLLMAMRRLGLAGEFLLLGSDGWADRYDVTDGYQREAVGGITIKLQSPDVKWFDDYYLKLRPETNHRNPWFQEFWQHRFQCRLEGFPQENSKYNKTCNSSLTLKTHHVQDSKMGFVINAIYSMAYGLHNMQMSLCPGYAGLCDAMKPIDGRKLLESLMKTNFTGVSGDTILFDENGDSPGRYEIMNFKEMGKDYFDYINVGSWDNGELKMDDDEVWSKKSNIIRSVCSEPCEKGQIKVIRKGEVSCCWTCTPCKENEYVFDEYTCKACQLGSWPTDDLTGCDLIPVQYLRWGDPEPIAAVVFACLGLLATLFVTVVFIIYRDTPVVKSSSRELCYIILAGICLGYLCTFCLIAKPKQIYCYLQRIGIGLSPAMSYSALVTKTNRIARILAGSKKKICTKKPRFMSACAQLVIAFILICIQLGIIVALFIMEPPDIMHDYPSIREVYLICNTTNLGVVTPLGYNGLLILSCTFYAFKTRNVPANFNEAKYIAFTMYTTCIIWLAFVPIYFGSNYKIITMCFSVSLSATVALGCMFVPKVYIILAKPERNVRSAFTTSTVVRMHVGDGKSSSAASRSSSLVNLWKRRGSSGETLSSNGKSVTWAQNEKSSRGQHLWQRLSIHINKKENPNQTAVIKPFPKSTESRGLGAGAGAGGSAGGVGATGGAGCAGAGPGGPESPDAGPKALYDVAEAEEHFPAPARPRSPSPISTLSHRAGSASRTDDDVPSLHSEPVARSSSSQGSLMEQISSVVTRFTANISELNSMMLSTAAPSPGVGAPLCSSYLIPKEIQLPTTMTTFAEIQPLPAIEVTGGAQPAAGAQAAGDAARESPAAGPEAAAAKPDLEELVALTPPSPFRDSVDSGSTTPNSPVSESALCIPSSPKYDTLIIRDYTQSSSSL

For `O=C1c2cc(COc3ccccc3)nn2CCN1C1CCOC1` (racemic) [Compound 12], the Emax [1, 3] was 25% and the EC50 [1, 4] was no less than 10000 nM.

For `O=C1c2cc(COc3ccccc3)nn2CCN1C1CCCOC1` (racemic) [Compound 20], the Emax [1, 3] was 52% and the EC50 [1, 4] was no less than 10000 nM.

`O=C1c2cc(COc3ccccc3)nn2CCCN1CC1CC1(F)F` (racemic) [Compound 25] showed an Emax [1, 3] of 58%, an EC50 [1, 4] of 389 nM and a melting point of 102.2 °C.

With `O=C1c2cc(COc3ccccc3)nn2CCN1CC1CC1(F)F` (stereo in doubt) [Compound 2, (S)-5-((2,2-difluorocyclopropyl)methyl)-2-(phenoxymethyl)-6,7-dihydropyrazolo[1,5-a]pyrazin-4(5H)-one] the “reversal of amphetamine-induced hyperlocomotion” value [2] was “effective in reducing amphetamine-induced hyperlocomotion”.

In the case of `O=C1c2cc(COc3ccccc3)nn2CCN1C[C@H]1CC1(F)F` [Compound 1, (R)-5-((2,2-difluorocyclopropyl)methyl)-2-(phenoxymethyl)-6,7-dihydropyrazolo[1,5-a]pyrazin-4(5H)-one], the Emax [1, 3] is reported as 55%, the EC50 [1, 4] is reported as 234 nM and the “reversal of amphetamine-induced hyperlocomotion” value [2] is reported as “effective in reducing amphetamine-induced hyperlocomotion”.

`O=C1c2cc(COc3ccccc3)nn2CCN1C[C@@H]1CC1(F)F` [Compound 2, (S)-5-((2,2-difluorocyclopropyl)methyl)-2-(phenoxymethyl)-6,7-dihydropyrazolo[1,5-a]pyrazin-4(5H)-one] gave an Emax [1, 3] of 65% and an EC50 [1, 4] of 380 nM.

`C[C@@H]1Cn2nc(COc3ccccc3)cc2C(=O)N1CC1CC1(F)F` (stereo partly shown) [Compound 4] showed an Emax [1, 3] of 72% and an EC50 [1, 4] of 871 nM.

`C[C@@H]1Cn2nc(COc3ccccc3)cc2C(=O)N1CC1CCC1` [Compound 6] gave an Emax [1, 3] of 76% and an EC50 [1, 4] of 91.2 nM.

For `O=C1c2cc(COc3ccccc3)nn2CCN1C1CCCC1` [Compound 7], the Emax [1, 3] was 48% and the EC50 [1, 4] was 195 nM.

`O=C1c2cc(COc3ccccc3)nn2CCN1C1COC1` [Compound 8] gave an Emax [1, 3] of 30% and an EC50 [1, 4] greater than 10000 nM.

Work on `O=C1c2cc(COc3ccccc3)nn2CCN1C1CCC1` [Compound 9] yielded an Emax [1, 3] of 29% and an EC50 [1, 4] of 324 nM.

In the case of `O=C1c2cc(COc3ccccc3)nn2CCN1CC1CC(F)(F)C1` [Compound 10], the Emax [1, 3] is reported as 72% and the EC50 [1, 4] is reported as 646 nM.

`O=C1c2cc(COc3ccccc3)nn2CCN1C1CCOCC1` [Compound 11] showed an Emax [1, 3] of 46% and an EC50 [1, 4] of no less than 10000 nM.

In the case of `O=C1c2cc(COc3ccccc3)nn2CCN1C1CCCCC1` [Compound 13, 5-cyclohexyl-2-(phenoxymethyl)-6,7-dihydropyrazolo[1,5-a]pyrazin-4(5H)-one], the Emax [1, 3] is reported as 58% and the EC50 [1, 4] is reported as 145 nM.

`O=C1c2cc(COc3cccc(F)c3)nn2CCN1C[C@H]1CC1(F)F` [Compound 14, (R)-5-((2,2-difluorocyclopropyl)methyl)-2-((3-fluorophenoxy)methyl)-6,7-dihydropyrazolo[1,5-a]pyrazin-4(5H)-one] showed an Emax [1, 3] of 51% and an EC50 [1, 4] of 158 nM.

Compound `CC1(C)CCC(N2CCn3nc(COc4ccccc4)cc3C2=O)CC1` [Compound 16] has an Emax [1, 3] of 71% and an EC50 [1, 4] of 97.7 nM.

`O=C1c2cc(COc3ccccc3)nn2CCN1C1Cc2ccccc2C1` [Compound 17] gave an Emax [1, 3] of 77% and an EC50 [1, 4] of 58.9 nM.

Compound `O=C1c2cc(COc3ccccc3)nn2CCN1CC1CCCCC1` [Compound 18] has an Emax [1, 3] of 79% and an EC50 [1, 4] of 52.5 nM.

`O=C1c2cc(COc3cccc(F)c3)nn2CCN1C[C@@H]1CC1(F)F` [Compound 21] showed an Emax [1, 3] of 65% and an EC50 [1, 4] of 110 nM.

`O=C1c2cc(COc3ccccc3)nn2CCCN1CC1CC1` [Compound 22, 5-(cyclopropylmethyl)-2-(phenoxymethyl)-5,6,7,8-tetrahydro-4H-pyrazolo[1,5-a][1,4]diazepin-4-one] gave an Emax [1, 3] of 59%, an EC50 [1, 4] of 380 nM and a melting point of 126.4 °C.

In the case of `CC1CCn2nc(COc3ccccc3)cc2C(=O)N1CC1CC1` (stereo not shown) [Compound 23], the Emax [1, 3] is reported as 57%, the EC50 [1, 4] is reported as 398 nM and the melting point is reported as 68.6 °C.

In the case of `CC1(C)CN(CC2CC2)C(=O)c2cc(COc3ccccc3)nn2C1` [Compound 24], the Emax [1, 3] is reported as 38%, the EC50 [1, 4] is reported as no less than 10000 nM and the melting point is reported as 96.5 °C.

`CC1CN(CC2CC2)C(=O)c2cc(COc3ccccc3)nn2C1` (stereo not shown) [Compound 28] showed an Emax [1, 3] of 30%, an EC50 [1, 4] greater than 30200 nM and a melting point of 67.4 °C.

Compound `CC1(CN2CCn3nc(COc4ccccc4)cc3C2=O)COC1` [Compound 31] has an Emax [1, 3] of 71% and an EC50 [1, 4] of 1100 nM.

In the case of `O=C1c2cc(COc3ccccc3)nn2CCN1CC1CC(F)(F)C1` [Compound 32], the “Emax (%)” value ([1]; H10H cell-line, maximum % effect as percent of response to maximally effective glutamate, glutamate EC20 present) is reported as 73% and the pEC50 [1, 4] is reported as 6.19.

For `O=C1c2cc(COc3ccccc3)nn2CCN1[C@H]1CCCNC1` [Compound 33], the Emax [1] was 19% and the EC50 [1, 4] was greater than 30200 nM.

With `O=C1c2cc(COc3ccccc3)nn2CCN1[C@H]1CCNC1` [Compound 34] the Emax [1, 3] was 24% and the EC50 [1, 4] was greater than 30200 nM.

With `O=C1c2cc(COc3ccccc3)nn2CCN1C1CCNCC1` [Compound 37] the Emax [1, 3] was 22% and the EC50 [1, 4] was greater than 30200 nM.
